Laboratory results from patent US11214561B2, “Histone methyltransferase EZH2 inhibitor, preparation method and pharmaceutical use thereof” (ANCUREALL PHARMACEUTICAL (SHANGHAI) CO., LTD., priority 2017, dated 2022).

Assays:
[1] = test system: Pfeiffer (EZH2 A677G); experiment: In vitro 50% growth inhibition (GI50), MTT/CCK8, Pfeiffer cells; format: cell-based, Human; settings: Homo sapiens, Pfeiffer, 240 h; Drug treatment for 10 days
[2] = test system: SU-DHL-8 (EZH2 WT); experiment: In vitro 50% growth inhibition (GI50), MTT/CCK8, SU-DHL-8 cells; format: cell-based; settings: Homo sapiens, SU-DHL-8, 144 h; Drug treatment for 6 days
[3] = test system: Pfeiffer cells (EZH2 A677G); experiment: Compound washout effect on in vitro growth of Pfeiffer cells (irreversible inhibition); format: cell-based, Human; settings: for Pfeiffer cells growth rate (%) (10 days), Continuous: continuous treatment; for Pfeiffer cells growth rate (%) (10 days), Washout: washout after 12 h
Method: The test of the compound washout effect on the in vitro growth inhibition of human diffuse large cell B lymphoma lymphocyte Pfeiffer (ATCC) expressing EZH2 A677G mutant protein was performed as follows.
Log-phase Pfeiffer cells were centrifuged directly (1700 rpm, 3 min), and the supernatant was discarded and the cells were counted. Cells were prepared with the complete medium (2×10^4 cells per ml), inoculated to 96-well plates (Corning), 200 μl per well, and incubated overnight at 37° C., 5% CO2. […] The cells were further cultured for 12 h. The cells in half of the test wells were then collected by centrifugation (parallel to 2 wells), and washed three times with serum-free cell culture medium, and then resuspended in a same volume of complete cell culture medium (200 μl). It was further cultured together with the untreated cells for 10 days at 37° C., 5% CO2.

[4] = test system: EZH2 A677G mutant positive-expressing tumor cell line Pfeiffer; experiment: In vivo growth inhibition, Pfeiffer subcutaneous transplantation model; settings: for Tumor volume: 200 mg/kg orally once a day
Excerpt: Test Example 2 Determination of the in vivo growth inhibition activity of the present compounds on EZH2 A677G mutant positive-expressing tumor cell line Pfeiffer NOD/SCID mice were subcutaneously inoculated with human diffuse large cell B lymphoma lymphocyte Pfeiffer (ATCC) expressing EZH2 A677G mutant protein to establish a subcutaneous transplantation model of human B cell lymphoma.
Experimental animals: NOD/SCID mice, female, 9 weeks (weeks of age when tumor cell inoculation), average weight 20.3 g, 18 mice, were purchased from Shanghai Lingchang biotechnology co., Ltd. with animal certificate No.: 2002007656. The breeding environment was SPF grade.
Test samples: the present example compounds 34 (purity: 99.03%) and 35 (purity: 97.6%), solid powder, preserved at −20° C.
Pfeiffer cells were cultured in RPM1640 medium containing 10% of fetal bovine serum. Log-phase Pfeiffer cells were collected and resuspended with PBS to 1×10^8 cells per ml for subcutaneous inoculation in NOD/SCID mice.
All the mice were treated with Co60 irradiation at a dose of 200 rad the day before the inoculation, and 1×10^7 Pfeiffer cells were then subcutaneously inoculated at the right back, and the cells were resuspended in 1:1 PBS and Matrigel (0.1 ml/mouse). When the average tumor volume was 134 mm^3, the mice were randomly grouped according to tumor size. Tumor volume was calculated as: long diameter×short diameter^2/2. The day of tumor cells inoculation was defined as day 0. The test was divided into solvent control group and drug treatment group (compound 34 group and compound 35 group). 6 mice for each group were given orally once a day for a total of 4 weeks. Efficacy was assessed based on relative tumor growth inhibition value (TGI), and safety was assessed based on animal weight change and mortality.
Preparation of test samples: compounds 34 or 35 was weighed and mixed with ultrapure water, and methanesulfonic acid was added for clarification. The PH value was about 1.64 at this moment. 4M NaOH was then added to adjust the PH to 3.5 and bring to volume by ultrapure water, the final concentrations was 20 mg/ml. Determination standard: TGI (%): […].
T/C % refers to the relative value-added rate of tumor, that is, the percentage value of relative tumor volume or tumor weight for the treatment group and the control group at a certain point. T and C were the relative tumor volumes (RTV) of the treatment group and the control group at a specific point, respectively. The calculation formula is as follows: T/C%=TRTV/CRTV*100% TRTV: mean RTV of the treatment group; CRTV: mean RTV of solvent control group; RTV=Vt/V0, V0 was the tumor volume of the animal when grouping, Vt was the tumor volume of the animal after treatment. Statistical analysis: all test results were defined as mean tumor volume±SEM (mean standard error). Tumor volume data of 27 days after the start of treatment were selected for statistical analysis among different groups, and independent sample T test was used to compare whether there were significant differences in tumor volume between the treatment group and the control group. All data were analyzed using SPSS 18.0. P<0.05 was considered as significant difference.

[5] = test system: Karpas-422 (EZH2 Y641N); experiment: In vitro 50% growth inhibition (GI50), MTT/CCK8, Karpas-422 cells; format: cell-based; settings: Homo sapiens, KARPAS-422, 144 h; Drug treatment for 6 days
[6] = 200 mg/kg, 27th day after the start of treatment
[7] = 200 mg/kg, 27 days after the start of treatment

Question: What does the source list for `C=CC(=O)N1CCC(N(CC)c2cc(-c3ccc(CN4CCCCC4)cc3)cc(C(=O)NCc3c(C)cc(C)[nH]c3=O)c2C)CC1` [Example 34, N-(4,6-dimethyl-2-oxo-1,2-dihydro-pyridin-3-ylmethyl)-5-[(1-acryloyl-piperidin-4-yl)-ethyl-amino]-4-methyl-4′-(piperidin-1-ylmethyl)-[1,1′-biphenyl]-3-carboxamide]?
Answer: GI50 [1]: 1 to 10 nM; GI50 [2]: > 1000 nM; Pfeiffer cells growth rate (%) (10 days), Continuous ([3]; Drug concentration 25 nM): 0%; Pfeiffer cells growth rate (%) (10 days), Washout ([3]; Drug concentration 25 nM): 0%; Pfeiffer cells growth rate (%) (10 days), Continuous ([3]; Drug concentration 50 nM): 0%; Pfeiffer cells growth rate (%) (10 days), Washout ([3]; Drug concentration 50 nM): 0%; Pfeiffer cells growth rate (%) (10 days), Continuous ([3]; Drug concentration 100 nM): 0%; Pfeiffer cells growth rate (%) (10 days), Washout ([3]; Drug concentration 100 nM): 0%; reversibility of inhibitory effect on cell growth in vitro, in words ([3]; washout treatment of Pfeiffer cells): potential irreversible inhibitory effect; body weight during the treatment ([4]; 200 mg/kg dose): maintained a stable body weight; tolerability ([4]; 200 mg/kg dose): well tolerated; Tumor volume ([4]; Day 0 after the start of treatment): 135 ± 10 mm^3; Tumor volume ([4]; Day 3 after the start of treatment): 298 ± 25 mm^3; Tumor volume ([4]; Day 7 after the start of treatment): 439 ± 48 mm^3; Tumor volume ([4]; Day 10 after the start of treatment): 441 ± 56 mm^3; Tumor volume ([4]; Day 14 after the start of treatment): 381 ± 39 mm^3; Tumor volume ([4]; Day 17 after the start of treatment): 472 ± 100 mm^3; Tumor volume ([4]; Day 21 after the start of treatment): 477 ± 158 mm^3; Tumor volume ([4]; Day 24 after the start of treatment): 570 ± 154 mm^3; Tumor volume ([4]; Day 27 after the start of treatment, listed as Compound 34): 538 ± 199 mm^3; Tumor volume ([4]; Day 27 after the start of treatment, listed as compound 34): 538 mm^3; RTV (x ± S), relative tumor volume [4, 6]: 4.7 ± 2.3; T/C (%), relative tumor volume [4, 6]: 32.9%; TGI (%), relative tumor volume [4, 6]: 67.1%; T/C (%), tumor weight [4, 7]: 23.4%; TGI, tumor weight [4, 7]: 76.6%; Tumor weight (mg) (x ± S) [4, 7]: 264 ± 113 mg; anti-tumor effect, in words ([4]; 200 mg/kg, versus solvent control group): significant anti-tumor effects; GI50 [5]: 10 to 100 nM
